How the values were obtained:
Assay type in all cases: cell-based, human
[1] = system: SW-620; assay: NCI single-dose GI%, colon; conditions: SW-620, colon; 10.0 μM in one dose
[2] = system: DU-145; assay: NCI single-dose GI%, prostate; conditions: DU-145, prostate; 10.0 μM in one dose
[3] = system: RXF 393; assay: NCI single-dose GI%, renal; conditions: RXF 393, renal; 10.0 μM in one dose
[4] = system: NCI-H226; assay: NCI single-dose GI%, NSC lung; conditions: 10.0 μM in one dose

SMILES | GI% [1] | GI% [2] | GI% [3] | GI% [4]
Cc1ccc(C2=NN(C(=O)c3ccc(S(C)(=O)=O)cc3)C(c3ccc(C)cc3)C2)cc1 (stereo not shown) [Compound 18g, (3,5-Bis(4-tolyl)-4,5-dihydro-1H-pyrazol-1-yl)(4-(methylsulfonyl)phenyl)methanone] | 25% |  |  | 
CS(=O)(=O)c1ccc(C(=O)N2N=C(c3ccccc3)CC2c2ccccc2O)cc1 (stereo not shown) [Compound 18h, (5-(2-Hydroxyphenyl)-3-phenyl-4,5-dihydro-1H-pyrazol-1-yl)(4-(methylsulfonyl)phenyl)methanone] |  | 19% | 29% | 15%

From paper PMC11240878, “Synthesis, enzyme inhibition assay, and molecular modeling study of novel pyrazolines linked to 4-methylsulfonylphenyl scaffold: antitumor activity and cell cycle analysis” (RSC Advances, 2024)
